Test results taken from US12152139B2, “Composition, film, optical filter, laminate, solid-state imaging element, image display device, and infrared sensor” (FUJIFILM Corporation, priority 2018, dated 2024).
≈ marks a conversion by molar mass, not a printed value.

Test: Solubility in propylene glycol methyl ether acetate
Assay type: physicochemical
Conditions: organic solvent or mixture, thermodynamic from solid, at 25° C., read-out: solubility in propylene glycol methyl ether acetate (compound (1))
Protocol: <Measurement of Solubility of Near Infrared Absorbing Pigment and Compound (1)>
Under atmospheric pressure, 99 to 101 g of a sample (precisely weighed value is defined as X g) was added to 1 L of propylene glycol methyl ether acetate at 25° C., and the mixture was stirred for 30 minutes. Next, the mixture was allowed to stand for 5 minutes and filtered, and the […] was dried under reduced pressure at 80° C. for 2 hours and weighed precisely (precisely weighed value is defined as Y g). Solubility of the sample dissolved in propylene glycol methyl ether acetate was calculated from the following expression. Solubility (g/L)=X−Y <Method for Quantifying Amine Compound in Composition>

Compound | solubility at 30 min [µg/mL]
O=C1C(=C2C(O)=CC(N(c3ccc(S(=O)(=O)O)cc3)c3ccc(S(=O)(=O)O)cc3)C=C2O)C(O)=C1c1c(O)cc(N(c2ccc(S(=O)(=O)O)cc2)c2ccc(S(=O)(=O)O)cc2)cc1O (centres unmarked) [Example P2] | 100 to 500 (≈ 105 to 524 µM)
O=c1c2ccccc2[nH]c2cc3c(=O)c4ccccc4n(CCCCS(=O)(=O)O)c3cc12 [Example P3] | ≥ 500
